Patent US20240287076A1, “COMPOUNDS FOR TARGETING DEGRADATION OF BRUTON'S TYROSINE KINASE” (BIOGEN MA INC., priority 2021, published 2024)

Each molecule was assayed against T1, BTK (Homo sapiens, UniProt Q06187) (assay: BTK degradation assay using the HiBiT Method (Nano-Glo HiBiT Lytic Assay, GM01501.3 cells)). Settings: HiBiT Degradation on GM01501.3 BTK @ 6 hours.
T1 construct: The GM01501.3 cell line endogenously expresses BTK with a HiBiT fusion tag via CRISPR knock-in at its C-terminal region; endogenous in cells; host or cells: GM01501.3 (GM01501 cells engineered by CRISPR knock-in of HiBiT at the BTK locus)
T1 sequence (Q06187 whole entry, the tested form may be a part): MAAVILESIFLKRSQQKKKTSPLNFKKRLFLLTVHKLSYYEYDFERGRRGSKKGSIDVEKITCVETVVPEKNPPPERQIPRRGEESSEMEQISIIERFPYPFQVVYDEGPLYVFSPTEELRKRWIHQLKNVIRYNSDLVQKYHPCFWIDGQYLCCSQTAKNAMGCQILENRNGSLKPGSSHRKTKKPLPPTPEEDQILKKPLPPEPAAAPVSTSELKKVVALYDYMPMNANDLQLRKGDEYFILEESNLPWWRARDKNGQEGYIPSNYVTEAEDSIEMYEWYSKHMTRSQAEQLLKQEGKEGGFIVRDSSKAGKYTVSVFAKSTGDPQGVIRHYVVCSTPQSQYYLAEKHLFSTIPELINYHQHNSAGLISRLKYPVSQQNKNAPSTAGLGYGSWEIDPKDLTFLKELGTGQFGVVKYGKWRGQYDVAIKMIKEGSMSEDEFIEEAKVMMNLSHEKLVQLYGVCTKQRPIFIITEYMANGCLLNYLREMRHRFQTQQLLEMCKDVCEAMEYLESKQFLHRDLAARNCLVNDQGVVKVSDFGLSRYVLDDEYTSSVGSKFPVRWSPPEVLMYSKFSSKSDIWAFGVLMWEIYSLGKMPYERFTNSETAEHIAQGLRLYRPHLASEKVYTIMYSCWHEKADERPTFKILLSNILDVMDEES
Type: cell-based
Experimental: Selected compounds were tested in a BTK degradation assay using the HiBiT Method. Park Memorial Institute (RPM1) 1640 Medium with phenol red, L-Glutamine, Sodium Pyruvate, and fetal bovine serum (FBS) were purchased from Gibco (Grand Island, NY, USA). Nano-Glo® HiBiT Lytic Assay System was purchased from Promega (Madison, WI, USA). GM01501 cells were obtained from the NIGMS Human Genetic Cell Repository at the Coriell Institute for Medical Research. The GM01501.3 cell line endogenously expresses BTK with a HiBiT fusion tag via CRISPR knock-in at its C-terminal region. It was engineered by electroporation with the Neon Transfection System (Themo Fisher Scientific), according to manufacturer indications. Electroporation conditions: 1 pulse of 1,350 V for 30 ms for 0.5×10_6 cells. Cell culture flasks and 384-well microplates were acquired from VWR (Radnor, PA, USA). BTK degradation was evaluated by quantification of luminescent signal using Nano-Glo® HiBiT Lytic Assay kit. Test compounds were added to the 384-well plate from a top concentration of 10 μM with 11 points, half log titration in duplicates. GM01501.3 cells were added into 384-well plates at a cell density of 10,000 cells per well in a total volume of 30 μl. The plates were kept at 37° C. with 5% CO2 for 6 hours. Negative control wells included cells treated with DMSO only and positive control wells included only growing media, without Nano-Glo® HiBiT Lytic reagent. After a 6-hour incubation, Nano-Glo® HiBiT Lytic Assay reagent was added to the cells following manufacturer indications. Luminescence was acquired on EnVision™ Multilabel Reader (PerkinElmer, Santa Clara, CA, USA). […] “++++” represents a DC50 value of less than 100 nM. “+++” represents a DC50 value of 100 nM-500 nM. “++” represents a DC50 value of 500 nM-1000 nM. “+” represents a DC50 value of greater than 1000 nM.
With `Cc1cc(-c2ncnn3cc(CCCCN4CCC(c5ccc(NC6CCC(=O)NC6=O)cc5)CC4)cc23)ccc1CNC(=O)c1noc(C(C)(C)C)n1` (stereo not drawn) [Example 130, 5-tert-butyl-N-[[4-[6-[4-[4-[4-[(2,6-dioxo-3-piperidyl)amino]phenyl]-1-piperidyl]butyl]pyrrolo[2,1-f][1,2,4]triazin-4-yl]-2-methyl-phenyl]methyl]-1,2,4-oxadiazole-3-carboxamide] the DC50 was < 100 nM.
In the case of `CC(C)(C)c1nc(C(=O)NCc2ccc(-c3ncnn4cc(-c5ccc(CN6CCC(c7ccc(C8CCC(=O)NC8=O)cc7)CC6)cc5)cc34)cc2)no1` (stereo not drawn) [Example 40, 5-tert-butyl-N-[[4-[6-[4-[[4-[4-(2,6-dioxo-3-piperidyl)phenyl]-1-piperidyl]methyl]phenyl]pyrrolo[2,1-f][1,2,4]triazin-4-yl]phenyl]methyl]-1,2,4-oxadiazole-3-carboxamide], the DC50 is reported as < 100 nM.
In the case of `Cc1cc(-c2ncnn3cc(-c4ccc(CCN5CCC(c6ccc(C7CCC(=O)NC7=O)cc6)CC5)cc4)cc23)ccc1CNC(=O)c1noc(C(C)(C)C)n1` (stereo not drawn) [Example 52, 5-tert-butyl-N-[[4-[6-[4-[2-[4-[4-(2,6-dioxo-3-piperidyl)phenyl]-1-piperidyl]ethyl]phenyl]pyrrolo[2,1-f][1,2,4]triazin-4-yl]-2-methyl-phenyl]methyl]-1,2,4-oxadiazole-3-carboxamide], the DC50 is reported as < 100 nM.
`Cc1cc(-c2ncnn3cc(-c4ccc(CN5CCC(c6ccc(NC7CCC(=O)NC7=O)cc6)CC5)cc4)cc23)ccc1CNC(=O)c1nc(C(C)(C)C)no1` (stereo not drawn) [Example 79, 3-tert-butyl-N-[[4-[6-[4-[[4-[4-[(2,6-dioxo-3-piperidyl)amino]phenyl]-1-piperidyl]methyl]phenyl]pyrrolo[2,1-f][1,2,4]triazin-4-yl]-2-methyl-phenyl]methyl]-1,2,4-oxadiazole-5-carboxamide] was tested, and the DC50 was < 100 nM.
`Cc1cc(-c2ncnn3cc(CCCCN4CCC(c5ccc(N6CCC(=O)NC6=O)cc5)CC4)cc23)ccc1CNC(=O)c1noc(C(C)(C)C)n1` [Example 129, 5-tert-butyl-N-[[4-[6-[4-[4-[4-(2,4-dioxohexahydropyrimidin-1-yl)phenyl]-1-piperidyl]butyl]pyrrolo[2,1-f][1,2,4]triazin-4-yl]-2-methyl-phenyl]methyl]-1,2,4-oxadiazole-3-carboxamide] was tested, and the DC50 was < 100 nM.
`Cc1cc(-c2ncnn3cc(-c4ccc(CNC5CCc6cc(NC7CCC(=O)NC7=O)ccc6C5)cc4)cc23)ccc1CNC(=O)c1noc(C(C)(C)C)n1` (stereo not drawn) [Example 202, 5-(tert-butyl)-N-(4-(6-(4-(((6-((2,6-dioxopiperidin-3-yl)amino)-1,2,3,4-tetrahydronaphthalen-2-yl)amino)methyl)phenyl)pyrrolo[2,1-f][1,2,4]triazin-4-yl)-2-methylbenzyl)-1,2,4-oxadiazole-3-carboxamide] was tested, and the DC50 was < 100 nM.
In the case of `CC(C)(C)OC1CN(C(=O)NCc2ccc(-c3ncnn4cc(CCCCN5CCC(c6ccc(NC7CCC(=O)NC7=O)cn6)CC5)cc34)cc2F)C1` (stereo not drawn) [Example 135, 3-tert-butoxy-N-[[4-[6-[4-[4-[5-[(2,6-dioxo-3-piperidyl)amino]-2-pyridyl]-1-piperidyl]butyl]pyrrolo[2,1-f][1,2,4]triazin-4-yl]-2-fluoro-phenyl]methyl]azetidine-1-carboxamide], the DC50 is reported as < 100 nM.
With `Cc1cc(-c2ncnn3cc(N4CCN(C(=O)CCCCCCCCNC(=O)c5ccc(OC6CCC(=O)NC6=O)cc5)CC4)cc23)ccc1CNC(=O)c1noc(C(C)(C)C)n1` (stereo not drawn) [Example 180, 5-(tert-butyl)-N-(4-(6-(4-(9-(4-((2,6-dioxopiperidin-3-yl)oxy)benzamido)nonanoyl)piperazin-1-yl)pyrrolo[2,1-f][1,2,4]triazin-4-yl)-2-methylbenzyl)-1,2,4-oxadiazole-3-carboxamide] the DC50 was < 100 nM.
In the case of `Cc1ccc(C(=O)NCc2ccc(-c3ncnn4cc(-c5ccc(CN6CCC(c7ccc(NC8CCC(=O)NC8=O)cc7)CC6)cc5)cc34)cc2C)cc1` (stereo not drawn) [Example 68, N-[[4-[6-[4-[[4-[4-[(2,6-dioxo-3-piperidyl)amino]phenyl]-1-piperidyl]methyl]phenyl]pyrrolo[2,1-f][1,2,4]triazin-4-yl]-2-methyl-phenyl]methyl]-4-methyl-benzamide], the DC50 is reported as < 100 nM.
`Cc1cc(-c2ncnn3cc(CCN4CCC(c5ccc(NC6CCC(=O)NC6=O)nc5)CC4)cc23)ccc1CNC(=O)c1noc(C(C)(C)C)n1` (stereo not drawn) [Example 250, 5-(tert-butyl)-N-(4-(6-(2-(4-(6-((2,6-dioxopiperidin-3-yl)amino)pyridin-3-yl)piperidin-1-yl)ethyl)pyrrolo[2,1-f] [1,2,4]triazin-4-yl)-2-methylbenzyl)-1,2,4-oxadiazole-3-carboxamide] was tested, and the DC50 was < 100 nM.
Work on `CC(C)(C)c1nc(C(=O)NCc2ccc(-c3ncnn4cc(CCN5CCC(n6ccc(NC7CCC(=O)NC7=O)n6)CC5)cc34)cc2F)no1` (stereo not drawn) [Example 123, 5-tert-butyl-N-[[4-[6-[2-[4-[3-[(2,6-dioxo-3-piperidyl)amino]pyrazol-1-yl]-1-piperidyl]ethyl]pyrrolo[2,1-f][1,2,4]triazin-4-yl]-2-fluoro-phenyl]methyl]-1,2,4-oxadiazole-3-carboxamide] yielded a DC50 of 100 to 500 nM.
In the case of `Cc1cc(-c2ncnn3cc(-c4ccc(C(=O)Nc5cccc6c5CCN(C5CCC(=O)NC5=O)C6)cc4)cc23)ccc1CNC(=O)c1noc(C(C)(C)C)n1` (stereo not drawn) [Example 194, 5-(tert-butyl)-N-(4-(6-(4-((2-(2,6-dioxopiperidin-3-yl)-1,2,3,4-tetrahydroisoquinolin-5-yl)carbamoyl)phenyl)pyrrolo[2,1-f][1,2,4]triazin-4-yl)-2-methylbenzyl)-1,2,4-oxadiazole-3-carboxamide], the DC50 is reported as < 100 nM.
`Cc1cc(-c2ncnn3cc(-c4ccc(OCCN5CCC(c6ccc(OC7CCC(=O)NC7=O)cc6)CC5)cc4)cc23)ccc1CNC(=O)c1noc(C(C)(C)C)n1` (stereo not drawn) [Example 107, 5-tert-butyl-N-[[4-[6-[4-[2-[4-[4-[(2,6-dioxo-3-piperidyl)oxy]phenyl]-1-piperidyl]ethoxy]phenyl]pyrrolo[2,1-f][1,2,4]triazin-4-yl]-2-methyl-phenyl]methyl]-1,2,4-oxadiazole-3-carboxamide] was tested, and the DC50 was < 100 nM.
For `CC(C)(C)c1nc(C(=O)NCc2ccc(-c3ncnn4cc(-c5ccc(CN6CCC(c7ccc(C8CCC(=O)NC8=O)cc7)CC6)cc5)cc34)cc2Cl)no1` (stereo not drawn) [Example 46, 5-tert-butyl-N-[[2-chloro-4-[6-[4-[[4-[4-(2,6-dioxo-3-piperidyl)phenyl]-1-piperidyl]methyl]phenyl]pyrrolo[2,1-f][1,2,4]triazin-4-yl]phenyl]methyl]-1,2,4-oxadiazole-3-carboxamide], the DC50 was < 100 nM.
In the case of `Cc1cc(-c2ncnn3cc(N4CCN(C(=O)CC5CC6(CO5)CN(C(=O)c5ccc(OC7CCC(=O)NC7=O)cc5)C6)CC4)cc23)ccc1CNC(=O)c1noc(C(C)(C)C)n1` (stereo not drawn) [Example 190, 5-(tert-butyl)-N-(4-(6-(4-(2-(2-(4-((2,6-dioxopiperidin-3-yl)oxy)benzoyl)-6-oxa-2-azaspiro[3.4]octan-7-yl)acetyl)piperazin-1-yl)pyrrolo[2,1-f][1,2,4]triazin-4-yl)-2-methylbenzyl)-1,2,4-oxadiazole-3-carboxamide], the DC50 is reported as < 100 nM.
